Molecular target: Nav 1.7 (Homo sapiens (Human), UniProt Q15858)
Experiment: in-vitro Nav 1.7 PX (IC50)
Type: cell-based
Settings: not given

Nav 1.7, sequence (Q15858 whole entry): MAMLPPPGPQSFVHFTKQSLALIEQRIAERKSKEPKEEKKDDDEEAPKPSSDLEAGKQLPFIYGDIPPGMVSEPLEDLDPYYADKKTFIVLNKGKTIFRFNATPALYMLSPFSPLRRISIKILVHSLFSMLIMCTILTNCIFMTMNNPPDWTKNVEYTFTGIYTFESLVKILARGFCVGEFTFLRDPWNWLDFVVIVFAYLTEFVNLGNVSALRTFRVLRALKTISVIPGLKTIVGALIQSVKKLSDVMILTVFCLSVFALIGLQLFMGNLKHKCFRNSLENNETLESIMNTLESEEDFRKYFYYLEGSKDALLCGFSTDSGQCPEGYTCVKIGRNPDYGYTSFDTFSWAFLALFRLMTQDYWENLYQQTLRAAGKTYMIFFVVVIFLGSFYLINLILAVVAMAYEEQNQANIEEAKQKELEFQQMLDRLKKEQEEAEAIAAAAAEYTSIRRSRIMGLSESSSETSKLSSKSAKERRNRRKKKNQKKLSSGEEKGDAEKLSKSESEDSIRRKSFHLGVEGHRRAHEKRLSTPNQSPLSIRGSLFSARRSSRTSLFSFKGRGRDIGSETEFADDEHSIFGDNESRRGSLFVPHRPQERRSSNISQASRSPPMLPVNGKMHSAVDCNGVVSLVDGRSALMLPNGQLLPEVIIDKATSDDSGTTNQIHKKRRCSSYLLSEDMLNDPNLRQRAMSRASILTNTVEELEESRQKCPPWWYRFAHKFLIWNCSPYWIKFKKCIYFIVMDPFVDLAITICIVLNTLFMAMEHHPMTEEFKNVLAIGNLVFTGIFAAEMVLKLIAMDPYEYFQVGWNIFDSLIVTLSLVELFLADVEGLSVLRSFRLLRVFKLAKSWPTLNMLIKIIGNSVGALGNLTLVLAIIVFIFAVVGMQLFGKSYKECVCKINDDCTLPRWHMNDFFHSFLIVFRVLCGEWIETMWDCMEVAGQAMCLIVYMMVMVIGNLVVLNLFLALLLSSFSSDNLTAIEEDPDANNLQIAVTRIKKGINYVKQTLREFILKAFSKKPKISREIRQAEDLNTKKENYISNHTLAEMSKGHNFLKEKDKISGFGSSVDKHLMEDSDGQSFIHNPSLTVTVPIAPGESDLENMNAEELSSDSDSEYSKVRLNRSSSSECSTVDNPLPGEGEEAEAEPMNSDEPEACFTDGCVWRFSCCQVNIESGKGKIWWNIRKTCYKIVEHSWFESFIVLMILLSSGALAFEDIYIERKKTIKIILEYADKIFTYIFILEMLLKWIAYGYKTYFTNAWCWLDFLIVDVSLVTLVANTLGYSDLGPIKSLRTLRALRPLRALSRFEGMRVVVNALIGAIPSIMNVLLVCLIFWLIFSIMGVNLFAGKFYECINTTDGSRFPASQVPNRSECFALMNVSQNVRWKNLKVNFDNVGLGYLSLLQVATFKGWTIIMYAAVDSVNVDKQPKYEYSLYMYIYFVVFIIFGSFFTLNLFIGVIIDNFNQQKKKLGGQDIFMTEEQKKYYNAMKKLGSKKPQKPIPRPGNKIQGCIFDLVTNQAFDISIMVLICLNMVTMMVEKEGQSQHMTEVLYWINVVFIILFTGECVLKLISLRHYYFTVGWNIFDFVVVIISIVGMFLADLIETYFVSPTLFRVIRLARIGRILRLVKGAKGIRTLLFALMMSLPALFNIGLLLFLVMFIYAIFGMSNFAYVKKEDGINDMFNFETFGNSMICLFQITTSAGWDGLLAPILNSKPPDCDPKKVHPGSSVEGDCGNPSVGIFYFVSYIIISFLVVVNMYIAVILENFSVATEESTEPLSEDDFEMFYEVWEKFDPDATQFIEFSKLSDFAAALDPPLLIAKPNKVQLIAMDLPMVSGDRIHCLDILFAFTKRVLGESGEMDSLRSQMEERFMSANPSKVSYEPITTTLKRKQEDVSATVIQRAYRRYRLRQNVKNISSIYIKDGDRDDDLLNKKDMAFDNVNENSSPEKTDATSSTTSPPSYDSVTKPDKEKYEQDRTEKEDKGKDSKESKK

IC50	Compound
5 nM	COc1cc(-c2cc(F)cc(Cl)c2)c(F)cc1-n1c(=O)ccc2cc(S(=O)(=O)Nc3ncon3)ccc21 (atropisomer, axis not shown; (P)) [Example 326, (P)-1-(3′-chloro-2,5′-difluoro-5-methoxy-4-biphenylyl)-N-1,2,4-oxadiazol-3-yl-2-oxo-1,2-dihydro-6-quinolinesulfonamide]
63 nM	COc1cc(-c2cc(F)cnc2OC)c(C)cc1-n1c(=O)ccc2cc(S(=O)(=O)Nc3ccon3)ccc21 (atropisomer, axis not shown; (P)) [Example 426, (P)-1-(4-(5-fluoro-2-methoxy-3-pyridinyl)-2-methoxy-5-methylphenyl)-N-3-isoxazolyl-2-oxo-1,2-dihydro-6-quinolinesulfonamide]
25 nM	COc1cc(-c2cccc(F)c2)c(C)cc1-n1c(=O)ccc2cc(S(=O)(=O)Nc3ccon3)ccc21 (atropisomer, axis not shown; (P)) [Example 427, (P)-1-(3′-fluoro-5-methoxy-2-methyl-4-biphenylyl)-N-3-isoxazolyl-2-oxo-1,2-dihydro-6-quinolinesulfonamide]
9 nM	COc1cc(-c2ccc(Cl)c(C)c2)ccc1-n1c(=O)ccc2cc(S(=O)(=O)Nc3ccon3)ccc21 (atropisomer, axis not shown; (P)) [Example 432, (P)-1-(4′-chloro-3-methoxy-3′-methyl-4-biphenylyl)-N-3-isoxazolyl-2-oxo-1,2-dihydro-6-quinolinesulfonamide]
10 nM	COc1cc(-c2cc(F)cc(Cl)c2)c(C#N)cc1-n1c(=O)ccc2cc(S(=O)(=O)Nc3ccon3)ccc21 (atropisomer, axis not shown; (P)) [Example 433, (P)-1-(3′-chloro-2-cyano-5′-fluoro-5-methoxy-4-biphenylyl)-N-3-isoxazolyl-2-oxo-1,2-dihydro-6-quinolinesulfonamide]

The next lines start with the compound.

Compound	IC50
COc1cc(-c2cccc(F)c2)c(Cl)cc1-n1c(=O)ccc2cc(S(=O)(=O)Nc3ncccn3)ccc21 (atropisomer, axis not shown; (P)) [Example 355, (P)-1-(2-chloro-3′-fluoro-5-methoxy-[1,1′-biphenyl]-4-yl)-2-oxo-N-(pyrimidin-2-yl)-1,2-dihydroquinoline-6-sulfonamide]	31 nM
COc1cc(-c2cccc(F)c2)c(Cl)cc1-n1c(=O)ccc2cc(S(=O)(=O)Nc3ccon3)c(F)cc21 (atropisomer, axis not shown; (P)) [Example 358, (P)-1-(2-chloro-3′-fluoro-5-methoxy-[1,1′-biphenyl]-4-yl)-7-fluoro-N-(isoxazol-3-yl)-2-oxo-1,2-dihydroquinoline-6-sulfonamide]	4660 nM
COc1ccc(-c2cccc(C(F)(F)F)c2)cc1-n1c(=O)ccc2cc(S(=O)(=O)Nc3ccon3)ccc21 (atropisomer, axis not shown; (P)) [Example 381, (P)—N-3-isoxazolyl-1-(4-methoxy-3′-(trifluoromethyl)-3-biphenylyl)-2-oxo-1,2-dihydro-6-quinolinesulfonamide]	15 nM
CCOc1cc(-c2cccc(F)c2)c(F)cc1-n1c(=O)ccc2cc(S(=O)(=O)Nc3ccon3)ccc21 (atropisomer, axis not shown; (P)) [Example 388, (P)-1-(5-ethoxy-2,3′-difluoro-[1,1′-biphenyl]-4-yl)-N-(isoxazol-3-yl)-2-oxo-1,2-dihydroquinoline-6-sulfonamide]	48 nM
Cc1cc(-c2cccc(F)c2)c(F)cc1-n1c(=O)ccc2cc(S(=O)(=O)Nc3ccon3)ccc21 (atropisomer, axis not shown; (P)) [Example 390, (P)-1-(2,3′-difluoro-5-methyl-[1,1′-biphenyl]-4-yl)-N-(isoxazol-3-yl)-2-oxo-1,2-dihydroquinoline-6-sulfonamide]	100 nM
COc1cc(-c2ccc(Cl)c(C)c2)c(F)cc1-n1c(=O)c(OC)cc2cc(S(=O)(=O)Nc3ccon3)ccc21 (atropisomer, axis not shown; (P)) [Example 414, (P)-1-(4′-chloro-2-fluoro-5-methoxy-3′-methyl-[1,1′-biphenyl]-4-yl)-N-(isoxazol-3-yl)-3-methoxy-2-oxo-1,2-dihydroquinoline-6-sulfonamide]	13 nM
COc1cc(Br)c(C)cc1-n1c(=O)ccc2cc(S(=O)(=O)Nc3ccon3)ccc21 (atropisomer, axis not shown; (P)) [Example 415, (P)-1-(4-bromo-2-methoxy-5-methylphenyl)-N-3-isoxazolyl-2-oxo-1,2-dihydro-6-quinolinesulfonamide]	269 nM
COc1cc(-c2cc(F)cc(Cl)c2)c(C)cc1-n1c(=O)ccc2cc(S(=O)(=O)Nc3ccon3)ccc21 (atropisomer, axis not shown; (P)) [Example 417, (P)-1-(3′-chloro-5′-fluoro-5-methoxy-2-methyl-4-biphenylyl)-N-3-isoxazolyl-2-oxo-1,2-dihydro-6-quinolinesulfonamide]	9 nM
COc1cc(-c2ccc(Cl)c(C)c2)c(C)cc1-n1c(=O)ccc2cc(S(=O)(=O)Nc3ccon3)ccc21 (atropisomer, axis not shown; (P)) [Example 421, (P)-1-(4′-chloro-5-methoxy-2,3′-dimethyl-4-biphenylyl)-N-3-isoxazolyl-2-oxo-1,2-dihydro-6-quinolinesulfonamide]	16 nM
COc1cc(-c2cc(F)cc(Cl)c2)ccc1-n1c(=O)ccc2cc(S(=O)(=O)Nc3ccon3)ccc21 (atropisomer, axis not shown; (P)) [Example 430, (P)-1-(3′-chloro-5′-fluoro-3-methoxy-4-biphenylyl)-N-3-isoxazolyl-2-oxo-1,2-dihydro-6-quinolinesulfonamide]	12 nM

Same assay, conditions: in-vitro PatchXpress (PX)

IC50	Compound
9 nM	COc1cc(-c2ccc(F)c(Cl)c2)c(F)cc1-n1c(=O)ccc2cc(S(=O)(=O)Nc3ccon3)ccc21 (atropisomer, axis not shown; (P)) [Example 365, (P)-1-(3′-chloro-2,4′-difluoro-5-methoxy-4-biphenylyl)-N-3-isoxazolyl-2-oxo-1,2-dihydro-6-quinolinesulfonamide]
3 nM	COc1cc(-c2ccc(Cl)c(C)c2)c(Cl)cc1-n1c(=O)ccc2cc(S(=O)(=O)Nc3ccncn3)ccc21 (atropisomer, axis not shown; (P)) [Example 367, (P)-1-(2,4′-dichloro-5-methoxy-3′-methyl-4-biphenylyl)-2-oxo-N-4-pyrimidinyl-1,2-dihydro-6-quinolinesulfonamide]
16 nM	COc1cc(-c2cccc(C(F)(F)F)c2)ccc1-n1c(=O)ccc2cc(S(=O)(=O)Nc3cccnn3)ccc21 (atropisomer, axis not shown; (P)) [Example 369, (P)-1-(3-methoxy-3′-(trifluoromethyl)-4-biphenylyl)-2-oxo-N-3-pyridazinyl-1,2-dihydro-6-quinolinesulfonamide]
4360 nM	COc1cc(-c2ccc(Cl)c(C)c2)ccc1-n1c(=O)ccc2cc(S(=O)(=O)Nc3cccnn3)ccc21 (atropisomer, axis not shown; (P)) [Example 371, (P)-1-(4′-chloro-3-methoxy-3′-methyl-4-biphenylyl)-2-oxo-N-3-pyridazinyl-1,2-dihydro-6-quinolinesulfonamide]
8040 nM	COc1cc(-c2cncc(Cl)c2)c(F)cc1-n1c(=O)ccc2cc(S(=O)(=O)Nc3ccon3)ccc21 (atropisomer, axis not shown; (P)) [Example 408, (P)-1-(4-(5-chloro-3-pyridinyl)-5-fluoro-2-methoxyphenyl)-N-3-isoxazolyl-2-oxo-1,2-dihydro-6-quinolinesulfonamide]
